Assay results from patent US20220127297A1, “Novel Antibacterial 3"-Derivatives Of 4,6-Disubstituted 2,5-Dideoxystreptamine Aminoglycoside Antibiotics” (AGILeBiotics B.V., priority 2018, published 2022).
≈ marks a conversion by molar mass, not a printed value.

System: E. coli (APH(3′)IIIa)
Experiment: MIC 50, broth micro-dilution, E. coli expressing APH(3′)IIIa
Format: cell-based, Escherichia coli
Experimental: Plasmid transformation. Approximately 500 ng of the pET-9b(+) (Cat. No. 69432-3, Merck), pAT21-1 (provided by Prof. Dr. Patrice Courvalin, M.D., Pasteur Institute, France; prepared according to Trieu-Cuot et. al, Mol. Gen. Genet. 198(2), 348 (1985)), pBluescript::AAC(6′)-Ie/APH(2″)-Ia (provided by Prof. Dr. Sergei Vakulenko, M.D., University of Notre Dame, Ind., USA; prepared according to S. B. Vakulenko et. al., J. Biol. Chem. 287 (52), 43262 (2012)), pBlue_lpp_aacC3_rrnC and pSET152 (Cat. No. PVT3395, Life Science Market; prepared according to Bierman et al., Gene 116 (1), 43 (1992)) plasmids, encoding APH(3′)-Ia (SEQ ID NO:2), APH(3′)-IIIa (SEQ ID NO:3), AAC(6′)Ie-APH(2″)-Ia (SEQ ID NO:4), AAC(3)-III (SEQ ID NO:1), and AAC(3)-IV (SEQ ID NO:5) respectively, were individually incubated in a vial of competent cells for 15 min on ice. The cells were subsequently heated to 42° C. for 90 s, and cooled on ice for 1 min. After addition of 900 μL LB, the cells were incubated for 1 h at 37° C. and 200 rpm. Cells were plated on LB-agar supplemented with 50 μg/mL KanaA and incubated for 18 h at 37° C. The next day, a single colony was inoculated in 5 mL LB supplemented with 50 μg/mL and grown for 18 h at 37° C. and 200 rpm. A 200 μL sample of each culture was diluted with 200 μL of 40% v/v glycerol in water, and stored at −80° C. The plasmid was purified from the remaining culture using the Plasmid Miniprep kit. Plasmid DNA was investigated by Eurofins Genomics (Germany) to confirm the identity of the aminoglycoside resistance genes.
3.1 Against E. coli Strains
Tested reference compounds. Amikacin sulfate (Cat. No. 01693, Chem-Impex), Gentamicin sulfate (Cat. No. G4918, Sigma Aldrich).
Microbial strains. E. coli ATCC 25922, E. coli ATCC 25922/pET-9b(+), E. coli ATCC 25922/pAT21-1, E. coli ATCC 25922/pBluescript::AAC(6′)-Ie/APH(2″)-Ia, E. coli ATCC 25922/pBlue_lpp_aacC3_rrnC, E. coli ATCC 25922/pSET152.
Culture media and equipment. BBL™ Mueller Hinton Broth 2 (Lot. BCBW1143, Cat. No. 70192, Sigma); Kanamycin A (Cat. No. A1493, AppliChem); 96-well deep well plate, 1 mL (Cat. No. 0030506.200, Eppendorf); Plate lids (Cat. No. 0030131.525, Eppendorf); 96-well plate, F-bottom (Cat. No. 781602, Brand; Incubator, Infors Multitron Pro); Laminar flow (Heraeus KS12); UV/VIS meter (Eppendorf BioPhotometer Plus); Platereader (Tecan Sunrise).
Compound preparation. Compounds were prepared in MH2 media at a concentration of 5 mM and stored at 4° C. For testing, solutions of 128 μM were prepared in MH2. Out of these working solutions, 400 μL was transferred to wells in the first column of 96-well deep well plates. Each compound was transferred in triplicate. Plates were previously filled with 200 μL of MH2 media in all wells except for the wells in the first column. After compound and antibiotic addition, the compounds were serial two-fold diluted by transferring 200 μL from the first to the second column, then from the second to the third column and so on. Finally, 200 μL was removed from the last column.
Inoculum preparation. Microorganisms used were all revived from 20% glycerol (40% v/v glycerol in water was diluted with MH2) storage at −80° C. by inoculating them in 5 mL MH2. inoculums of E. coli containing a plasmid were selected for by adding 50 μg/mL KanaA. The Inoculums were grown to an optical density (measured by UV/Vis spectroscopy) of 0.6-0.8 at 600 nm. Out of these suspensions, actual inoculums were prepared by diluting them to an optical density (OD) of 0.1 in MH2 media. From these inoculums, 200 μL was transferred to each well, resulting in a final compound concentration range of 64 μM-31.3 nM. All plates were incubated at 900 rpm and 70% rH for 18 h at 37° C.
MIC determination. After 18 h of growth, 200 μL was transferred to a 96-well F-bottom plate. The optical density was determined by a plate reader at 600 nm, with 10 s shaking before reading. Triplicate measurements were averaged, and a growth curve was plotted in Microsoft Excel. […]

[1] = ATCC25922 harboring plasmid encoding APH(3′)IIIa
[2] = Escherichia coli, ATCC25922, ATCC25922 harboring plasmid encoding APH(3′)IIIa

Row | Compound | MIC50 [1] | MIC50 [2]
1 | NCC[C@H](O)C(=O)N[C@@H]1C[C@H](N)[C@@H](O[C@H]2O[C@H](CN)[C@@H](O)[C@@H](O)[C@H]2O)[C@H](O)[C@H]1O[C@H]1O[C@H](CO)[C@@H](O)[C@H](N)[C@H]1O [ABX3002, 3′Epi-KanaA-AHB] | 16 to 32 µM | 
2 | N=C(N)NC1[C@@H](O)C(OC2[C@@H](F)[C@H](O[C@H]3OC(CN)[C@@H](O)[C@H](O)C3O)C(N)C[C@H]2NC(=O)[C@@H](O)CCN)O[C@H](CO)[C@H]1O (stereo partly drawn) [ABX3003, 3′epi-KanaA-AHB-F-Gua] |  | 2 µM (≈ 1.26 µg/mL)
3 | NCCC(O)C(=O)NC1CC(N)C(OC2OC(CN)C(O)C(O)C2O)C(F)C1OC1OC(CO)C(O)C(N)C1O (stereo not drawn) [ABX3005, 3′Epi-KanaA-AHB-F] | 4 to 8 µM | 
4 | NCCC(O)C(=O)NC1CC(N)C(OC2OC(CN)C(O)C(O)C2N)C(O)C1OC1OC(CO)C(O)C(N)C1O (stereo not drawn) [ABX4001, KanaB-AHB] | 8 to 16 µM | 
5 | NCC[C@H](O)C(=O)N[C@@H]1CC(N)[C@@H](O[C@H]2OC(CN)[C@@H](O)[C@@H](O)C2N)[C@H](O)C1OC1O[C@H](CO)[C@@H](O)C(N)[C@H]1O (stereo partly drawn) [ABX4002, 3′Epi-KanaB-AHB] | 8 µM (≈ 4.68 µg/mL) | 
6 | NCC[C@H](O)C(=O)N[C@@H]1CC(N)[C@@H](O[C@H]2OC(CN)[C@@H](O)[C@@H](O)C2N)[C@H](F)C1OC1O[C@H](CO)[C@@H](O)C(N)[C@H]1O (stereo partly drawn) [ABX4003, 3′Epi-KanaB-AHB-F] | 8 µM (≈ 4.69 µg/mL) | 
7 | N=C(N)NC1[C@@H](O)C(OC2[C@@H](F)[C@H](O[C@H]3OC(CN)[C@@H](O)[C@H](O)C3N)C(N)C[C@H]2NC(=O)[C@@H](O)CCN)O[C@H](CO)[C@H]1O (stereo partly drawn) [ABX4004, 3′epi-KanaB-AHB-F-Gua] | 1 to 2 µM | 
8 | N=C(N)N[C@@H]1[C@@H](O)[C@@H](O[C@@H]2[C@@H](O)[C@H](O[C@H]3O[C@H](CN)[C@@H](O)[C@@H](O)[C@H]3N)[C@@H](N)C[C@H]2NC(=O)[C@@H](O)CCN)O[C@H](CO)[C@H]1O [ABX4005, 3′Epi-KanaB-AHB-Gua] | 8 to 16 µM | 
9 | N=C(N)NC1[C@@H](O)C(OC2[C@@H](F)[C@H](O[C@H]3OC(CN)[C@@H](O)[C@H](O)C3N)C(N)C[C@H]2NC(=O)[C@@H](O)CCN)O[C@H](CO)[C@H]1O (stereo partly drawn) [ABX4006, KanaB-AHB-F-Gua] | 4 to 8 µM | 
10 | NCCC(O)C(=O)NC1CC(N)C(OC2OC(CN)C(O)C(O)C2N)C(F)C1OC1OC(CO)C(O)C(N)C1O (stereo not drawn) [ABX4007, KanaB-AHB-F] | 16 µM (≈ 9.39 µg/mL) | 
11 | N=C(N)NC1[C@@H](O)C(OC2[C@@H](O)[C@H](O[C@H]3OC(CN)[C@@H](O)[C@H](O)C3N)C(N)C[C@H]2NC(=O)[C@@H](O)CCN)O[C@H](CO)[C@H]1O (stereo partly drawn) [ABX4009, KanaB-AHB-Gua] | 64 µM (≈ 40.1 µg/mL) | 
12 | NCC[C@H](O)C(=O)N[C@@H]1CC(N)[C@@H](O[C@H]2OC(CN)[C@@H](O)CC2N)[C@H](O)C1OC1O[C@H](CO)[C@@H](O)C(N)[C@H]1O (stereo partly drawn) [ABX5004, Tobra-AHB] | 4 to 8 µM | 
13 | N=C(N)NC1[C@@H](O)C(OC2[C@@H](O)[C@H](O[C@H]3OC(CN)[C@@H](O)CC3N)C(N)C[C@H]2NC(=O)[C@@H](O)CCN)O[C@H](CO)[C@H]1O (stereo partly drawn) [ABX5005, Tobra-AHB-Gua] | 2 to 4 µM | 
14 | N=C(N)NC1C(O)[C@@H](CO)OC(OC2C(F)[C@H](O[C@H]3OC(CN)[C@@H](O)CC3N)C(N)C[C@H]2NC(=O)[C@@H](O)CCN)[C@@H]1O (stereo partly drawn) [ABX5006, Tobra-AHB-F-Gua] |  | < 0.25 µM
15 | N=C(NCCN)NC1C(O)[C@@H](CO)OC(OC2C(F)[C@H](O[C@H]3OC(CN)[C@@H](O)CC3N)C(N)C[C@H]2NC(=O)[C@@H](O)CCN)[C@@H]1O (stereo partly drawn) [ABX5020, Tobra-AHB-F-Gua-2-amino-ethyl] |  | 0.5 µM (≈ 0.328 µg/mL)
16 | NCC[C@H](O)C(=O)N[C@@H]1CC(N)[C@@H](O[C@H]2OC(CN)[C@@H](O)CC2N)[C@H](F)C1OC1O[C@H](CO)[C@@H](O)C(N)[C@H]1O (stereo partly drawn) [ABX5024, Tobra-AHB-F] | 1 µM (≈ 0.571 µg/mL) | 
17 | N=C(NC[C@@H]1CCCN1)NC1[C@@H](O)C(OC2[C@@H](F)[C@H](O[C@H]3OC(CN)[C@@H](O)CC3N)C(N)C[C@H]2NC(=O)[C@@H](O)CCN)O[C@H](CO)[C@H]1O (stereo partly drawn) [ABX5026, Tobra-AHB-F-Gua (S) pyrrolidine-2-yl-methyl] |  | 0.25 µM (≈ 0.174 µg/mL)
18 | N=C(NCC1CC1)NC1[C@@H](O)C(OC2[C@@H](F)[C@H](O[C@H]3OC(CN)[C@@H](O)CC3N)C(N)C[C@H]2NC(=O)[C@@H](O)CCN)O[C@H](CO)[C@H]1O (stereo partly drawn) [ABX5027, Tobra-AHB-F-Gua cyclopropylmethyl] |  | 0.25 to 0.5 µM (≈ 0.167 to 0.333 µg/mL)
19 | N=C(NCCO)NC1[C@@H](O)C(OC2[C@@H](F)[C@H](O[C@H]3OC(CN)[C@@H](O)CC3N)C(N)C[C@H]2NC(=O)[C@@H](O)CCN)O[C@H](CO)[C@H]1O (stereo partly drawn) [ABX5029, Tobra-AHB-F-Gua 2-hydroxy-ethyl] |  | 0.5 µM (≈ 0.328 µg/mL)
20 | N=C(NCCCN)NC1[C@@H](O)C(OC2[C@@H](F)[C@H](O[C@H]3OC(CN)[C@@H](O)CC3N)C(N)C[C@H]2NC(=O)[C@@H](O)CCN)O[C@H](CO)[C@H]1O (stereo partly drawn) [ABX5030, Tobra-AHB-F-Gua-3-amino-propyl] |  | 0.25 µM (≈ 0.167 µg/mL)
21 | CNCCNC(=N)NC1[C@@H](O)C(OC2[C@@H](F)[C@H](O[C@H]3OC(CN)[C@@H](O)CC3N)C(N)C[C@H]2NC(=O)[C@@H](O)CCN)O[C@H](CO)[C@H]1O (stereo partly drawn) [ABX5038, Tobra-AHB-F-Gua 2-(methylamino)ethyl] |  | 0.25 µM (≈ 0.167 µg/mL)
22 | N=C(NC[C@@H]1CCNC1)NC1[C@@H](O)C(OC2[C@@H](F)[C@H](O[C@H]3OC(CN)[C@@H](O)CC3N)C(N)C[C@H]2NC(=O)[C@@H](O)CCN)O[C@H](CO)[C@H]1O (stereo partly drawn) [ABX5039, Tobra-AHB-F-Gua (R) pyrrolidine-3-ylmethyl] |  | 0.25 µM (≈ 0.174 µg/mL)
23 | N=C(NC[C@@H]1CNCCO1)NC1[C@@H](O)C(OC2[C@@H](F)[C@H](O[C@H]3OC(CN)[C@@H](O)CC3N)C(N)C[C@H]2NC(=O)[C@@H](O)CCN)O[C@H](CO)[C@H]1O (stereo partly drawn) [ABX5040, Tobra-AHB-F-Gua (S) morpholin-2-yl methyl] |  | 0.25 µM (≈ 0.178 µg/mL)
24 | N=C(NCCCO)NC1[C@@H](O)C(OC2[C@@H](F)[C@H](O[C@H]3OC(CN)[C@@H](O)CC3N)C(N)C[C@H]2NC(=O)[C@@H](O)CCN)O[C@H](CO)[C@H]1O (stereo partly drawn) [ABX5041, Tobra-AHB-F-Gua 3-hydroxy-propyl] |  | 0.5 µM (≈ 0.335 µg/mL)
25 | N=C(NC[C@H]1CCNC1)NC1[C@@H](O)C(OC2[C@@H](F)[C@H](O[C@H]3OC(CN)[C@@H](O)CC3N)C(N)C[C@H]2NC(=O)[C@@H](O)CCN)O[C@H](CO)[C@H]1O (stereo partly drawn) [ABX5042, Tobra-AHB-F-Gua (S) pyrrolidine-3-ylmethyl] |  | 0.25 µM (≈ 0.174 µg/mL)
26 | N=C(NC[C@H]1CNCCO1)NC1[C@@H](O)C(OC2[C@@H](F)[C@H](O[C@H]3OC(CN)[C@@H](O)CC3N)C(N)C[C@H]2NC(=O)[C@@H](O)CCN)O[C@H](CO)[C@H]1O (stereo partly drawn) [ABX5043, Tobra-AHB-F-Gua (R) morpholin-2-yl methyl] |  | 0.25 µM (≈ 0.178 µg/mL)
27 | N=C(N)NC1[C@@H](O)C(OC2[C@@H](F)[C@H](O[C@H]3OC(CNCCO)[C@@H](O)CC3N)C(N)C[C@H]2NC(=O)[C@@H](O)CCN)O[C@H](CO)[C@H]1O (stereo partly drawn) [ABX5045, 6N-2-hydroxy-ethyl-Tobra-AHB-F-Gua] |  | 1 µM (≈ 0.657 µg/mL)
